Laboratory results taken from PubChem BioAssay AID2060896 (Molecular Pharmacology Branch, DTP, NCI, 2025).

Test system: 941728-121-R-J1-PDC complex spheroid viability
Test: Anticancer human tumor 941728-121-R-J1-PDC patient-derived lung adenocarcinoma cell line growth inhibition [RAS]
Conditions: for IC50: curve of first compound; for viability, T/C: stronger effect = lower value
How it was run: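 Agents were tested in combination matrices in half-log decrements from a top concentration at or near clinical Cmax (10 microM if undetermined). Targets were multi-cell spheroids of tumour lines plus HUVEC and MSC stromal cells.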
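Further: spheroids exposed to compounds for 7 days before readout.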
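Wherever viability, T/C is given: 100% = DMSO vehicle control viability.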

What does the source list for `CC(=O)OC12COC1CC(O)C1(C)C(=O)C(O)C3=C(C)C(OC(=O)C(O)C(NC(=O)OC(C)(C)C)c4ccccc4)CC(O)(C(OC(=O)c4ccccc4)C21)C3(C)C` (centres undefined) + C=CC(=O)N1CCN(c2nc(OCC3CCCN3C)nc3c(F)c(-c4nc(N)cc(C)c4C(F)(F)F)c(Cl)cc23)C(C)C1?
IC50 (second compound 0.00316 µM): < 31.6 nM; IC50 (second compound 0.01 µM): < 31.6 nM; IC50 (second compound 0.0316 µM): < 31.6 nM; IC50 (second compound 0.1 µM): < 31.6 nM; IC50 (second compound 0.316 µM): < 31.6 nM; IC50 (second compound 1 µM): < 31.6 nM; viability, T/C (second compound 0.00316 µM, first compound 0.0316 µM): 15.8%; viability, T/C (second compound 0.00316 µM, first compound 0.1 µM): 13.3%; viability, T/C (second compound 0.00316 µM, first compound 0.316 µM): 13.2%; viability, T/C (second compound 0.00316 µM, first compound 1 µM): 12.3%; viability, T/C (second compound 0.00316 µM, first compound 3.16 µM): 13.6%; viability, T/C (second compound 0.00316 µM, first compound 10 µM): 20.4%; viability, T/C (second compound 0.01 µM, first compound 0.0316 µM): 15.8%; viability, T/C (second compound 0.01 µM, first compound 0.1 µM): 10.3%; viability, T/C (second compound 0.01 µM, first compound 0.316 µM): 12.7%; viability, T/C (second compound 0.01 µM, first compound 1 µM): 12.2%; viability, T/C (second compound 0.01 µM, first compound 3.16 µM): 12.1%; viability, T/C (second compound 0.01 µM, first compound 10 µM): 12.1%; viability, T/C (second compound 0.0316 µM, first compound 0.0316 µM): 14.4%; viability, T/C (second compound 0.0316 µM, first compound 0.1 µM): 14.1%; viability, T/C (second compound 0.0316 µM, first compound 0.316 µM): 11%; viability, T/C (second compound 0.0316 µM, first compound 1 µM): 12.8%; viability, T/C (second compound 0.0316 µM, first compound 3.16 µM): 13.1%; viability, T/C (second compound 0.0316 µM, first compound 10 µM): 12.2%; viability, T/C (second compound 0.1 µM, first compound 0.0316 µM): 14.1%; viability, T/C (second compound 0.1 µM, first compound 0.1 µM): 15.6%; viability, T/C (second compound 0.1 µM, first compound 0.316 µM): 12%; viability, T/C (second compound 0.1 µM, first compound 1 µM): 13.8%; viability, T/C (second compound 0.1 µM, first compound 3.16 µM): 13.8%; viability, T/C (second compound 0.1 µM, first compound 10 µM): 12.6%; viability, T/C (second compound 0.316 µM, first compound 0.0316 µM): 13.5%; viability, T/C (second compound 0.316 µM, first compound 0.1 µM): 13%; viability, T/C (second compound 0.316 µM, first compound 0.316 µM): 14.1%; viability, T/C (second compound 0.316 µM, first compound 1 µM): 13.8%; viability, T/C (second compound 0.316 µM, first compound 3.16 µM): 13.1%; viability, T/C (second compound 0.316 µM, first compound 10 µM): 16.2%; viability, T/C (second compound 1 µM, first compound 0.0316 µM): 14.7%; viability, T/C (second compound 1 µM, first compound 0.1 µM): 13.5%; viability, T/C (second compound 1 µM, first compound 0.316 µM): 12.6%; viability, T/C (second compound 1 µM, first compound 1 µM): 14.6%; viability, T/C (second compound 1 µM, first compound 3.16 µM): 14%; viability, T/C (second compound 1 µM, first compound 10 µM): 14.5%

Which results are given for `CC1(C)CCC(Nc2ncc(C(F)(F)F)c(-c3c[nH]c4c(P(C)(C)=O)c(C#N)ccc34)n2)CN1` (centres undefined) + C=CC(=O)N1CCN(c2nc(OCC3CCCN3C)nc3c(F)c(-c4nc(N)cc(C)c4C(F)(F)F)c(Cl)cc23)C(C)C1?
IC50 (second compound 0.00316 µM): < 0.949 nM; IC50 (second compound 0.01 µM): < 0.949 nM; IC50 (second compound 0.0316 µM): < 0.949 nM; IC50 (second compound 0.1 µM): < 0.949 nM; IC50 (second compound 0.316 µM): < 0.949 nM; IC50 (second compound 1 µM): < 0.949 nM; viability, T/C (second compound 0.00316 µM, first compound 0.000949 µM): 17.1%; viability, T/C (second compound 0.00316 µM, first compound 0.003 µM): 18.1%; viability, T/C (second compound 0.00316 µM, first compound 0.00949 µM): 19.7%; viability, T/C (second compound 0.00316 µM, first compound 0.03 µM): 19%; viability, T/C (second compound 0.00316 µM, first compound 0.0949 µM): 20.5%; viability, T/C (second compound 0.00316 µM, first compound 0.3 µM): 20.9%; viability, T/C (second compound 0.01 µM, first compound 0.000949 µM): 18.9%; viability, T/C (second compound 0.01 µM, first compound 0.003 µM): 16.2%; viability, T/C (second compound 0.01 µM, first compound 0.00949 µM): 17.9%; viability, T/C (second compound 0.01 µM, first compound 0.03 µM): 17.8%; viability, T/C (second compound 0.01 µM, first compound 0.0949 µM): 17.9%; viability, T/C (second compound 0.01 µM, first compound 0.3 µM): 16.8%; viability, T/C (second compound 0.0316 µM, first compound 0.000949 µM): 14.8%; viability, T/C (second compound 0.0316 µM, first compound 0.003 µM): 16.8%; viability, T/C (second compound 0.0316 µM, first compound 0.00949 µM): 17.8%; viability, T/C (second compound 0.0316 µM, first compound 0.03 µM): 17.6%; viability, T/C (second compound 0.0316 µM, first compound 0.0949 µM): 17.7%; viability, T/C (second compound 0.0316 µM, first compound 0.3 µM): 17.7%; viability, T/C (second compound 0.1 µM, first compound 0.000949 µM): 15.4%; viability, T/C (second compound 0.1 µM, first compound 0.003 µM): 16.9%; viability, T/C (second compound 0.1 µM, first compound 0.00949 µM): 17%; viability, T/C (second compound 0.1 µM, first compound 0.03 µM): 17.2%; viability, T/C (second compound 0.1 µM, first compound 0.0949 µM): 17.8%; viability, T/C (second compound 0.1 µM, first compound 0.3 µM): 19.1%; viability, T/C (second compound 0.316 µM, first compound 0.000949 µM): 15.3%; viability, T/C (second compound 0.316 µM, first compound 0.003 µM): 15.8%; viability, T/C (second compound 0.316 µM, first compound 0.00949 µM): 15.8%; viability, T/C (second compound 0.316 µM, first compound 0.03 µM): 17.7%; viability, T/C (second compound 0.316 µM, first compound 0.0949 µM): 19.3%; viability, T/C (second compound 0.316 µM, first compound 0.3 µM): 18.1%; viability, T/C (second compound 1 µM, first compound 0.000949 µM): 16.6%; viability, T/C (second compound 1 µM, first compound 0.003 µM): 16.6%; viability, T/C (second compound 1 µM, first compound 0.00949 µM): 18.8%; viability, T/C (second compound 1 µM, first compound 0.03 µM): 19.3%; viability, T/C (second compound 1 µM, first compound 0.0949 µM): 18.6%; viability, T/C (second compound 1 µM, first compound 0.3 µM): 21%
